Measurements as given in US4816482A, “Radioprotective agents having an amino-thioalkyl structure” (priority 1983, dated 1989).
“Also recorded” adds a separate entry of the source. Structures can show the parent of a compound that is named as a salt. Where two headings read alike, the source gives them in different places.

Legend:
[1] = Acute toxicity (LD50), i.p.; type: in vivo, mice; conditions: mouse, in vivo, ip
[2] = system: bone marrow; test: FRD on bone marrow; conditions: in vivo
[3] = system: EMT 6 tumours; test: Gain factor (bone marrow FRD/tumour FRD) on EMT 6 tumours; type: in vivo; conditions: 5×10^-1 survival level
[4] = system: normal tissues / tumours; test: Selectivity of protection: normal tissues versus tumours; conditions: EMT6 and HT19 tumours, except if necrotised
[5] = system: mice; conditions: cited from earlier work
[6] = system: mice; test: Acute toxicity (LD50), i.p.; type: in vivo; conditions: for toxicity (in words): mouse, in vivo
[7] = system: mice; test: Radioprotective activity: survival at the 30th day after irradiation; type: in vivo; conditions: for radioprotective activity (in words): mouse, in vivo; for responders at 600 mg/kg: 600 mg/kg i.p.
Method: This study of radioprotective activity was carried out according to a technique described by M. Fatome at al., Eur. J. Med. Chem. 1977, 12, (1), 93. […] This dose is equal to 950 Rad.
More complete studies are recorded in Table II.

[8] = system: normal tissues / tumours; conditions: literature knowledge; cited from earlier work
[9] = Chemical stability; type: physicochemical; conditions: I 102 compared with WR 2721
[10] = cited from earlier work

## CC(=O)SCCNC(=O)CN [I 102, N-glycyl-S-acetylcysteamine]
[1]
  LD50: > 1500 mg/kg
[2]
  FRD on bone marrow: 1.4
[3]
  gain factor (bone marrow FRD/tumour FRD): 1.2
[4]
  protection of tumours (in words): does not protect tumours (or protects them to only a small extent)

## CC(C)(N)CSS(=O)(=O)O [H2 N--(C(CH3)2 --CH2 --S--SO3 H]
[5]; 600 mg/kg, J. R. Piper et al., J. Med. Chem. 1966
  protection (in words): good protection

## CC(=O)OC(CNC(=O)CN)CSC(C)=O (stereo not drawn) [Example 32, TRIFLUOROACETATE]
[1]
  LD50: > 1500 mg/kg
[1]; Table I
  LD50: 1500 mg/kg
[1]; Table II
  LD50: 1500 mg/kg
[6]
  toxicity (in words): low toxicity
[7]; 250 mg/kg, 900 Rad
  survival at 30 days: 70%
[7]; 1,000 mg/kg, 1,100 Rad
  survival at 30 days: 80%
[7]; Mus musculus, light or radiation study, ip, 720 h, Table I, 1,000 mg/kg i.p., 15' before irradiation at 900 or 950 Rad, read-out: % survival at the 30th day
  responders at 1000 mg/kg: 100%
[7]; Mus musculus, light or radiation study, ip, 720 h, Table II, 1,000 mg/kg i.p., 15' before irradiation, 900 Rad, read-out: % survival at 30 days
  responders at 1000 mg/kg: 100%
[7]; Mus musculus, light or radiation study, ip, 720 h, Table II, dose not printed (250 mg/kg in text), 15' before irradiation, 900 Rad, read-out: % survival at 30 days
  responders at 250 mg/kg: 70%
[7]; Mus musculus, light or radiation study, ip, 720 h, Table II, dose not printed (1,000 mg/kg in text), 15' before irradiation, 1,100 Rad, read-out: % survival at 30 days
  responders at 1000 mg/kg: 80%

## N[C@@H](CS)C(=O)O [cysteine]
[8]
  selectivity of protection (in words): non-selective protection of the cells

## NCC(O)CSP(=O)(O)O (stereo not drawn) [WR 77913]
[5]; mice, 400 mg/kg (i.p.) 30 minutes before irradiation of 950, 970 Rad
  survival at 30 days: 100%

## NCC(=O)NCCSC(=O)C(Cl)Cl.O=C(O)C(F)(F)F [Example 10, N-GLYCYL-S-(DICHLOROACETYL)CYSTEAMINE TRIFLUOROACETATE]
[6]; Table I
  LD50: 800 mg/kg
[7]; Mus musculus, light or radiation study, ip, 720 h, Table I, 800 mg/kg i.p., 15' before irradiation at 900 or 950 Rad
  responders at 800 mg/kg: 40%

## NCCS [cysteamine, β-mercaptoethylamine]
[8]
  selectivity of protection (in words): non-selective protection of the cells

## CC(=O)NCCSC(=O)CN.O=C(O)C(F)(F)F [Example 34]
[1]; Table II
  LD50: 1000 mg/kg
[6]; Table I
  LD50: 1,000 mg/kg
[7]
  radioprotective activity (in words): slight radioprotective action

## C[C@H](N)C(=O)NCCSSCCNC(=O)[C@H](C)N.O=C(O)C(F)(F)F.O=C(O)C(F)(F)F [Example 45, N,N'-[…] DI(TRIFLUOROACETATE)]
[1]; Table I
  LD50: 1200 mg/kg
[1]; Table II
  LD50: 1200 mg/kg
[6]
  toxicity (in words): low toxicity
[7]; Mus musculus, ip, 720 h, read-out: % survival at 30 days, Table II, 4th entry, time and Rad not given
  responders at 600 mg/kg: 50%
[7]; Mus musculus, light or radiation study, ip, 720 h, read-out: % survival at 30 days, Table II, 150 mg/kg i.p., 15' before irradiation, 900 Rad
  responders at 150 mg/kg: 20%
[7]; Mus musculus, light or radiation study, ip, 720 h, read-out: % survival at 30 days, Table II, 2 (hours, cut off) before irradiation, 900 Rad
  responders at 600 mg/kg: 50%
[7]; Mus musculus, light or radiation study, ip, 720 h, read-out: % survival at 30 days, Table II, 15' before irradiation, 900 Rad
  responders at 600 mg/kg: 100%
[7]; Mus musculus, light or radiation study, ip, 720 h, read-out: % survival at the 30th day, Table I, 15' before irradiation at 900 or 950 Rad
  responders at 600 mg/kg: 100%
[7]
  radioprotective activity (in words): good radioprotection

## NCCCNCCSP(=O)(O)O [WR 2721]
[6]
  LD50: 950 mg/kg
[2]
  FRD on bone marrow: 2.7
[3]
  gain factor (bone marrow FRD/tumour FRD): 1.2
[9]
  chemical stability (in words): unstable; also recorded: not very stable
[8]
  selectivity of protection (in words): protecting normal tissues against radiation-induced damage, while allowing solid tumors to bear alone the effect of the radiation; also recorded: concentrates selectively in healthy cells and not in cancer cells; also recorded: concentrating selectively in normal tissues (and not in cancer cells); also recorded: selectively protects normal tissues against radiation-induced damage
[10]
  solubility in water (in words): high solubility in water

## CC(=O)SCCNC(=O)[C@H](C)N.O=C(O)C(F)(F)F [Example 22]
[1]; Table II
  LD50: 1250 mg/kg
[6]; Table I
  LD50: 1,250 mg/kg
[6]
  toxicity (in words): low toxicity
[7]
  radioprotective activity (in words): good radioprotection
